Assays:
senescent cells = experiment: Viability of senescent cells (CellTiter-Glo), Example 17, Table 13; conditions: for Survival (%): doxorubicin-induced senescent cells, 0 μM = 100
Method: Cells induced to undergo senescence by doxorubicin treatment were treated with test compound at designated concentrations and measured using the CellTiter-Glo Luminescent Cell Viability Assay (Promega).

[1] = test system: HMGN1 secreted from senescent A549 cells; experiment: HMGN1 secretion (ELISA) from senescent A549 cells, Example 18, Table 14; format: cell-based, human; conditions: doxorubicin-senescent A549, without test compound (DMSO) = 100%; 30 μM (LX-5211, LX-5433, LX-6530, LX-6800, LX-9105, LX-9118, LX-9131, LX-9136, LX-9302, LX-9321, LX-9565, LX-9602 at 90 μM; LX-9336 at 2.4 mM)
Method: On the other hand, in cancer cells treated with doxorubicin, where senescence was induced, the amount of HMGN1 measured under conditions where cells were not treated with the test compound was calculated as 100%, and the amount of HMGN1 was measured under conditions where the senescent cancer cells were treated with the test compound.

senescent A549 cells = experiment: Viability of senescent A549 cells (CellTiter-Glo), Example 18, Table 15; conditions: for Survival (%): doxorubicin-induced senescent A549 cells, 0 μM = 100%
Method: Senescence-induced cancer cells treated with doxorubicin were treated with the test compound at designated concentrations, and cell viability was measured using the CellTiter-Glo Luminescent Cell Viability Assay (Promega).

[2] = test system: HMGN1 secreted from senescent cells; experiment: HMGN1 secretion (ELISA) from doxorubicin-induced senescent cells, Example 17; format: cell-based, human; conditions: senescent untreated = 100%; 30 μM; 90 μM for LX-5211, 5433, 6530, 9105, 9118, 9321, 9602; 2.4 mM for LX-9336
[3] = test system: obesity-induced aged C57BL6J mice; experiment: Anxiety, depression, lethargy (open field test) in obesity-aged mice, Example 23-4, Table 44; format: in vivo, mouse; conditions: obesity-aged mice
Method: 15-week-old male C57BL6J mice (The Jackson Laboratory) were induced to obesity by a high-fat diet using the same method as in Example 9-1 WO2023-085787 A1. After acclimation to the experimental environment for one week, the mice were randomly assigned to experimental and control groups. […] LX-3002 was mixed in distilled water with 4% DMSO, 30% PEG300, and 5% Tween80 and administered orally at a concentration of 10 mg/kg daily for 21 days. LX-5701 was mixed in PBS and administered orally at a concentration of 360 mg/kg daily for 21 days. LX-6807 was mixed in saline and administered intraperitoneally at a concentration of 1 mg/kg daily for 21 days. The control group received only the solution in the same volume. After the end of drug administration, the methods described in each example below were performed.
It was determined that anxiety and depression caused by obesity are not causally related to increased body weight, but rather are caused by the accumulation of senescent cells. Accordingly, an activity assessment (open field test) was performed using the same method as in Example 7-7 of WO2023-085787 A1 to analyze lethargy caused by anxiety and depression caused by obesity in mice. The table below quantitatively represents activity, a criterion for assessing lethargy due to anxiety and depression, under conditions in which aging was induced by obesity and the test compound was not administered or was administered. The activity assessment after obesity-induced aging was calculated as 100% and compared with the activity assessment after test compound treatment.

naturally aged mice = experiment: Anti-aging evaluation in naturally aged mice, Example 31, Table 55; format: in vivo, mouse;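 note: Vehicle-dosed control mice received solution alone at matching volume, values compare test-compound-treated aged mice against that control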
[4] = test system: bleomycin-induced pulmonary fibrosis mice; experiment: Bleomycin-induced pulmonary fibrosis mice, Example 31, Table 56; format: in vivo, mouse; conditions: untreated = 100%
Procedure, shortened: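 After treatment with test compound or vehicle alone, lungs of bleomycin-induced pulmonary fibrosis mice were harvested. Total RNA extracted and gene expression quantified by qRT-PCR.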

[5] = test system: naturally aged C57BL6J mice; experiment: Geriatric depression and anxiety in aged mice, Example 21-8; format: in vivo, mouse; conditions: aged mice
Excerpt: The amount of senescent-associated secretory factor (SASP) in serum and tissues collected from mice of Examples 21-5 and 21-6 was reduced by treatment with LX-5701, LX-2101, or LX-2102. It was confirmed that removing senescent cells, which increase with aging in mice, and effectively reducing the amount of senescent-associated secretory factor (SASP) can improve symptoms of geriatric depression and anxiety.

[6] = test system: carbon tetrachloride-induced liver fibrosis mice; experiment: Carbon tetrachloride-induced liver fibrosis mice, Example 31, Table 57; format: in vivo, mouse; conditions: CCl4-induced liver fibrosis mice, untreated = 100%
Procedure, shortened: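 Mice with induced hepatic fibrosis received either the test compound or, as controls, an equal volume of vehicle solution alone. Once dosing ended, liver tissue was harvested and total RNA was isolated. cDNA was synthesized from this RNA, and quantitative RT-PCR was run on it to measure hepatic mRNA levels of the fibrosis- and senescence-related genes.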

[7] = Homo sapiens, read-out: Survival (%)
[8] = Homo sapiens, A549, read-out: Survival (%)

**Q.** Which results are given for `CC(=O)[O-].CC(=O)[O-].CCc1c(CC)c2cc3nc(cnc4cc(OCCOCCOCCOC)c(OCCOCCOCCOC)cc4ncc4nc(cc1[n-]2)C(CCCO)=C4C)C(C)=C3CCCO.O.[Gd+3]` [LX-5211, Motexafin Gadolinium]?
**A.** Survival (%) (senescent cells; 1.1 μM): 97.6%; Survival (%) (senescent cells; 10 μM): 92.7%; Survival (%) (senescent cells; 30 μM): 87.1%; Survival (%) (senescent cells; 90 μM): 22.7%; Survival (%) (senescent cells; […]): 95.2%; HMGN1 [1]: 262%; Survival (%) (senescent A549 cells; 1.1 μM): 102.8%; Survival (%) (senescent A549 cells; 10 μM): 88.1%; Survival (%) (senescent A549 cells; 30 μM): 49.2%; Survival (%) (senescent A549 cells; 90 μM): 16.6%; Survival (%) (senescent A549 cells; […]): 98.8%; HMGN1 [2]: 253%

**Q.** For `CN1CCc2c(c3ccccc3n2Cc2ccc(C(=O)NO)cc2)C1` [LX-5352, Tubastatin A], which “Survival (%)” value (senescent cells; 1.1 μM) is on record?
**A.** Its value is 87.9%.

**Q.** And the “Survival (%)” value (senescent cells; 10 μM)?
**A.** Its value is 32.4%.

**Q.** And the “Survival (%)” value (senescent cells; 30 μM)?
**A.** The value was 1.9%.

**Q.** What about the “Survival (%)” value (senescent cells; […]) of the same compound?
**A.** The value was 61.6%.

**Q.** And the HMGN1 [1]?
**A.** The HMGN1 was 210%.

**Q.** What about the “Survival (%)” value (senescent A549 cells; 1.1 μM) of the same compound?
**A.** The value was 97.6%.

**Q.** And the “Survival (%)” value (senescent A549 cells; 10 μM)?
**A.** Its value is 51.8%.

**Q.** What about the “Survival (%)” value (senescent A549 cells; 30 μM) of the same compound?
**A.** Its value is 22.2%.

**Q.** And the “Survival (%)” value (senescent A549 cells; […])?
**A.** Its value is 87.5%.

**Q.** And the HMGN1 [2]?
**A.** Its HMGN1 is 194%.

**Q.** Which results are given for `CN(CC(=O)Nc1nc2ccc(OC(F)(F)F)cc2s1)C(=O)CNC(=O)CN` [LX-6216, Troriluzole]?
**A.** Survival (%) (senescent cells; 1.1 μM): 94.5%; Survival (%) (senescent cells; 10 μM): 68.8%; Survival (%) (senescent cells; 30 μM): 24.3%; Survival (%) (senescent cells; […]): 87.5%; HMGN1 [1]: 237%; Survival (%) (senescent A549 cells; 1.1 μM): 93.8%; Survival (%) (senescent A549 cells; 10 μM): 53.1%; Survival (%) (senescent A549 cells; 30 μM): 14.6%; Survival (%) (senescent A549 cells; […]): 87.5%; HMGN1 [2]: 221%

**Q.** For `Nc1cc(COc2c(Cl)cc(C[C@H](N)C(=O)O)cc2Cl)c2oc(-c3ccccc3)nc2c1` [LX-6233, Nanvuranlat], which “Survival (%)” value (senescent cells; 1.1 μM) is on record?
**A.** Its value is 83.7%.

**Q.** What about the “Survival (%)” value (senescent cells; 10 μM) of the same compound?
**A.** The value was 32.7%.

**Q.** What about the “Survival (%)” value (senescent cells; 30 μM) of the same compound?
**A.** The value was 11.3%.

**Q.** What about the “Survival (%)” value (senescent cells; […]) of the same compound?
**A.** The value was 61.2%.

**Q.** And the HMGN1 [1]?
**A.** Its HMGN1 is 228%.

**Q.** And the “Survival (%)” value (senescent A549 cells; 1.1 μM)?
**A.** The value was 91.8%.

**Q.** And the “Survival (%)” value (senescent A549 cells; 10 μM)?
**A.** Its value is 34.5%.

**Q.** What about the “Survival (%)” value (senescent A549 cells; 30 μM) of the same compound?
**A.** The value was 10.1%.

**Q.** What about the “Survival (%)” value (senescent A549 cells; […]) of the same compound?
**A.** Its value is 72.4%.

**Q.** What about the HMGN1 [2] of the same compound?
**A.** The HMGN1 was 241%.

**Q.** Which results are given for `O=C1C2=C(CCN(Cc3ccccc3)C2)N2CCN=C2N1Cc1ccc(C(F)(F)F)cc1` [LX-7263]?
**A.** Survival (%) (senescent cells; 1.1 μM): 49.2%; Survival (%) (senescent cells; […]): 0.9%; HMGN1 [1]: 283%; Survival (%) (senescent A549 cells; 1.1 μM): 53.6%; Survival (%) (senescent A549 cells; […]): 11.1%; HMGN1 [2]: 267%

**Q.** How did the viability at 1.1 µM (senescent cells; [7]) turn out when `Nc1ccc(O)c(C(=O)O)c1` [LX-9118, 5-aminosalicylic acid] was run?
**A.** Its viability at 1.1 µM is 102%.

**Q.** What about the viability at 10 µM (senescent cells; [7]) of the same compound?
**A.** The viability at 10 µM was 94.1%.

**Q.** What about the viability at 30 µM (senescent cells; [7]) of the same compound?
**A.** The viability at 30 µM was 62.8%.

**Q.** And the viability at 90 µM (senescent cells; [7])?
**A.** The viability at 90 µM was 4.9%.

**Q.** What about the geriatric depression [3] of the same compound?
**A.** Its geriatric depression is “similarly improving geriatric depression”.

**Q.** And the “Femur Ctsk mRNA” value (naturally aged mice; femur, untreated = 100%)?
**A.** Its value is 75%.

**Q.** What about the “Heart Sur2a mRNA” value (naturally aged mice; heart, untreated = 1.0) of the same compound?
**A.** Its value is 1.7 fold.

**Q.** What about the “Joint Col2a1 mRNA” value (naturally aged mice; joint, untreated = 1.0) of the same compound?
**A.** The value was 1.8 fold.

**Q.** And the “Kidney Agtr1a mRNA” value (naturally aged mice; kidney, untreated = 100%)?
**A.** The value was 71%.

**Q.** And the “Liver IL6 mRNA” value (naturally aged mice; liver, untreated = 100%)?
**A.** The value was 62%.

**Q.** And the “Liver MMP3 mRNA” value (naturally aged mice; liver, untreated = 100%)?
**A.** The value was 83%.

**Q.** And the “Liver p16 mRNA” value (naturally aged mice; liver, untreated = 100%)?
**A.** Its value is 74%.

**Q.** What about the “Open Field Test Time in Center” value (naturally aged mice; open field test, untreated = 100%) of the same compound?
**A.** Its value is 199%.

**Q.** What about the “Skin Col1a1 mRNA” value (naturally aged mice; skin, untreated = 1.0) of the same compound?
**A.** The value was 1.9 Fold.

**Q.** What about the “Skin SDF1 mRNA” value (naturally aged mice; skin, untreated = 1.0) of the same compound?
**A.** Its value is 1.8 fold.

**Q.** What about the “Muscle Mass” value (naturally aged mice; untreated 0.64 g) of the same compound?
**A.** The value was 0.73 g.

**Q.** What about the “Fat Mass” value (naturally aged mice; untreated 0.82 g) of the same compound?
**A.** Its value is 0.88 g.

**Q.** And the Cataract incidence (naturally aged mice; untreated 83%)?
**A.** The Cataract incidence was 62%.

**Q.** And the viability at 1.1 µM (senescent A549 cells; [8])?
**A.** Its viability at 1.1 µM is 105%.

**Q.** What about the viability at 10 µM (senescent A549 cells; [8]) of the same compound?
**A.** Its viability at 10 µM is 81.7%.

**Q.** And the viability at 30 µM (senescent A549 cells; [8])?
**A.** Its viability at 30 µM is 51.2%.

**Q.** What about the viability at 90 µM (senescent A549 cells; [8]) of the same compound?
**A.** The viability at 90 µM was 3.4%.

**Q.** What about the “Lung p16 mRNA” value ([4]; lung) of the same compound?
**A.** Its value is 76 (±4.6) %.

**Q.** And the “Col1a1 mRNA” value [4]?
**A.** Its value is 58 (±3.5) %.

**Q.** What about the “amount of SASP, p16, SA-β-gal, lipofuscin” value [5] of the same compound?
**A.** Its value is “reduced”.

**Q.** And the “symptoms of geriatric depression and anxiety” value [5]?
**A.** The value was “improved”.

**Q.** What about the “Liver p16 mRNA” value ([6]; liver) of the same compound?
**A.** The value was 69 (±2.4) %.

**Q.** And the “Col1a1 mRNA” value [6]?
**A.** Its value is 64 (±2.0) %.

Reference: patent publication US20260306460A1, “COMPOSITION FOR REMOVING AND INHIBITING SENESCENT CELLS, AND USES THEREOF” (LIFECEUTIX CO., LTD., priority 2023, published 2026)
